Results from US20030022158A1, “Peptides from the TT virus sequence and monospecific antibodies binding to the TT virus” (priority 1999, published 2003).

Key:
[1] = tested on: human IgG antibodies in human serum samples; assay: EIA of human antibody reactivities to overlapping synthetic peptides of TTV ORF1 and ORF2 (Tables 2 and 3); assay type: binding; conditions: for optical density (OD) at 405 nm: serum diluted 1:100, OD over 0.500 considered positive
Summary of the method: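 Human serum diluted 1:100 was tested for IgG binding to 18-residue overlapping TTV peptides coated at 10 μg/ml (pH 9.6 carbonate, 48 h). Blocking buffer held BSA, goat serum and Tween 20. Alkaline phosphatase anti-human IgG gave a signal measured as OD at 405 nm.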

[2] = tested on: human antibodies in human serum samples; assay: EIA reactivities of three human serum samples with deletion and alanine substitution analogues of SEQ ID NO: 1 (Table 6); assay type: binding; conditions: positive = more than 50% of the reactivity of the original peptide
Procedure: The EIAs used to identify which peptides interacted with human sera followed protocols known in the art. (See Zhang et al., J Gen Virol, 78:2735-2746 (1997), herein expressly incorporated by reference in its entirety). Briefly, microplates (Nunc, Denmark) were coated for 48 hours with synthetic peptides at a concentration of 10 μg/ml in 0.05M sodium carbonate buffer pH 9.6. After blocking for 2 hours at room temperature with phosphate buffered saline containing 1% bovine serum albumin, 2% goat serum and 0.05% Tween 20 (dilution buffer) the plates were incubated with human sera diluted 1:100 in dilution buffer. Bound human IgG was detected by incubation with anti-human IgG antibodies conjugated to alkaline phosphatase (Sigma Chemicals, St. Louis, Mo.). The plates were developed by the addition of […] (Sigma) and the optical densities were determined at 405 nm.
The reactivity to the TATTTTYAYPGTNRPPV (SEQ ID NO: 1) peptide was further characterized by mapping the reactivity of deletion and substitution peptide analogues.

[3] = human serum sample 1, negative for TTV DNA by PCR
[4] = human serum sample 2, negative for TTV DNA by PCR
[5] = human serum sample 3, negative for TTV DNA by PCR
[6] = human serum sample 4, negative for TTV DNA by PCR
[7] = human serum sample 5, negative for TTV DNA by PCR
[8] = human serum sample 6, negative for TTV DNA by PCR
[9] = human serum sample 7, negative for TTV DNA by PCR
[10] = human serum sample 9, positive for TTV DNA by PCR
[11] = human serum sample 11, negative for TTV DNA by PCR
[12] = human serum sample 18, positive for TTV DNA by PCR
[13] = human serum sample 36, positive for TTV DNA by PCR
[14] = human serum sample 48, positive for TTV DNA by PCR
[15] = human serum sample 98, positive for TTV DNA by PCR
[16] = human serum sample 110, positive for TTV DNA by PCR
[17] = human serum sample 155, positive for TTV DNA by PCR
[18] = human serum sample 157, positive for TTV DNA by PCR

Substance | optical density (OD) at 405 nm [1, 3] [OD] | optical density (OD) at 405 nm [1, 4] [OD] | optical density (OD) at 405 nm [1, 5] [OD] | optical density (OD) at 405 nm [1, 6] [OD] | optical density (OD) at 405 nm [1, 7] [OD] | optical density (OD) at 405 nm [1, 8] [OD] | optical density (OD) at 405 nm [1, 9] [OD] | optical density (OD) at 405 nm [1, 10] [OD] | optical density (OD) at 405 nm [1, 11] [OD] | optical density (OD) at 405 nm [1, 12] [OD] | optical density (OD) at 405 nm [1, 13] [OD] | optical density (OD) at 405 nm [1, 14] [OD] | optical density (OD) at 405 nm [1, 15] [OD] | optical density (OD) at 405 nm [1, 16] [OD] | optical density (OD) at 405 nm [1, 17] [OD] | optical density (OD) at 405 nm [1, 18] [OD] | OD at 405 nm, reactivity of human serum sample P4 [2] [OD] | OD at 405 nm, reactivity of human serum sample P7 [2] [OD] | OD at 405 nm, reactivity of human serum sample P36 [2] [OD] | further results
20: overlapping synthetic peptide of TTV ORF1 (TATTTTYAYPGTNRPP) [compound 20] | 0.07 | 0.06 | 0.06 | 0.07 | 0.06 | 0.08 | 0.08 | 0.08 | 0.11 | 0.07 | 0.07 | 0.09 | 0.04 | 0.06 | 0.09 | 0.10 | 0.096 | 0.144 | 0.086 | optical density (OD) at 405 nm, EIA reactivity of human serum sample 1 ([1]; serum sample 1, negative for TTV DNA by PCR, serum 1:100, peptide coated 10 μg/ml, OD over 0.500 positive): 0.09 OD; optical density (OD) at 405 nm, EIA reactivity of human serum sample 2 ([1]; serum sample 2, negative for TTV DNA by PCR, serum 1:100, peptide coated 10 μg/ml, OD over 0.500 positive): 0.10 OD; optical density (OD) at 405 nm, EIA reactivity of human serum sample 3 ([1]; serum sample 3, negative for TTV DNA by PCR, serum 1:100, peptide coated 10 μg/ml, OD over 0.500 positive): 0.09 OD; optical density (OD) at 405 nm, EIA reactivity of human serum sample 4 ([1]; serum sample 4, negative for TTV DNA by PCR, serum 1:100, peptide coated 10 μg/ml, OD over 0.500 positive): 0.08 OD; optical density (OD) at 405 nm, EIA reactivity of human serum sample 5 ([1]; serum sample 5, negative for TTV DNA by PCR, serum 1:100, peptide coated 10 μg/ml, OD over 0.500 positive): 0.07 OD; optical density (OD) at 405 nm, EIA reactivity of human serum sample 6 ([1]; serum sample 6, negative for TTV DNA by PCR, serum 1:100, peptide coated 10 μg/ml, OD over 0.500 positive): 0.10 OD; optical density (OD) at 405 nm, EIA reactivity of human serum sample 7 ([1]; serum sample 7, negative for TTV DNA by PCR, serum 1:100, peptide coated 10 μg/ml, OD over 0.500 positive): 0.07 OD; optical density (OD) at 405 nm, EIA reactivity of human serum sample 9 ([1]; serum sample 9, positive for TTV DNA by PCR, serum 1:100, peptide coated 10 μg/ml, OD over 0.500 positive): 0.10 OD; optical density (OD) at 405 nm, EIA reactivity of human serum sample 11 ([1]; serum sample 11, negative for TTV DNA by PCR, serum 1:100, peptide coated 10 μg/ml, OD over 0.500 positive): 0.09 OD; optical density (OD) at 405 nm, EIA reactivity of human serum sample 18 ([1]; serum sample 18, positive for TTV DNA by PCR, serum 1:100, peptide coated 10 μg/ml, OD over 0.500 positive): 0.10 OD; optical density (OD) at 405 nm, EIA reactivity of human serum sample 36 ([1]; serum sample 36, positive for TTV DNA by PCR, serum 1:100, peptide coated 10 μg/ml, OD over 0.500 positive): 0.08 OD; optical density (OD) at 405 nm, EIA reactivity of human serum sample 48 ([1]; serum sample 48, positive for TTV DNA by PCR, serum 1:100, peptide coated 10 μg/ml, OD over 0.500 positive): 0.08 OD; optical density (OD) at 405 nm, EIA reactivity of human serum sample 98 ([1]; serum sample 98, positive for TTV DNA by PCR, serum 1:100, peptide coated 10 μg/ml, OD over 0.500 positive): 0.08 OD; optical density (OD) at 405 nm, EIA reactivity of human serum sample 110 ([1]; serum sample 110, positive for TTV DNA by PCR, serum 1:100, peptide coated 10 μg/ml, OD over 0.500 positive): 0.10 OD; optical density (OD) at 405 nm, EIA reactivity of human serum sample 155 ([1]; serum sample 155, positive for TTV DNA by PCR, serum 1:100, peptide coated 10 μg/ml, OD over 0.500 positive): 0.14 OD; optical density (OD) at 405 nm, EIA reactivity of human serum sample 157 ([1]; serum sample 157, positive for TTV DNA by PCR, serum 1:100, peptide coated 10 μg/ml, OD over 0.500 positive): 0.16 OD
LIRSPFTDPQLLVHTDP (Peptide Immunogen) [compound 51, overlapping synthetic peptide of TTV ORF1] | 0.06 | 0.09 | 0.08 | 0.10 | 0.12 | 0.24 | 0.13 | 0.07 | 0.13 | 0.07 | 0.08 | 0.08 | 0.11 | 0.09 | 0.24 | 0.78 | 0.899 | 1.697 | 0.903 | human reactivity to peptide (reactive peptides within ORF1) ([1]; tested human sera, EIA): Reactive
22: overlapping synthetic peptide of TTV ORF1 (TATTTTYAYPGTNR) [compound 22] | 0.07 | 0.07 | 0.07 | 0.08 | 0.08 | 0.09 | 0.09 | 0.08 | 0.11 | 0.07 | 0.08 | 0.10 | 0.04 | 0.07 | 0.11 | 0.11 | 0.092 | 0.103 | 0.078 | –
